Experimental findings from BindingDB's records for doi:10.1021/jm020424z (Merck Research Laboratories, 2002) are described below.

In the test the target is Carboxypeptidase A1 (Bos taurus) (UniProt P00730). The test can be described thus: The compound was evaluated for the inhibition of Carboxypeptidase A.
Sequence of Carboxypeptidase A1 (Bos taurus) (P00730 whole entry, looked up): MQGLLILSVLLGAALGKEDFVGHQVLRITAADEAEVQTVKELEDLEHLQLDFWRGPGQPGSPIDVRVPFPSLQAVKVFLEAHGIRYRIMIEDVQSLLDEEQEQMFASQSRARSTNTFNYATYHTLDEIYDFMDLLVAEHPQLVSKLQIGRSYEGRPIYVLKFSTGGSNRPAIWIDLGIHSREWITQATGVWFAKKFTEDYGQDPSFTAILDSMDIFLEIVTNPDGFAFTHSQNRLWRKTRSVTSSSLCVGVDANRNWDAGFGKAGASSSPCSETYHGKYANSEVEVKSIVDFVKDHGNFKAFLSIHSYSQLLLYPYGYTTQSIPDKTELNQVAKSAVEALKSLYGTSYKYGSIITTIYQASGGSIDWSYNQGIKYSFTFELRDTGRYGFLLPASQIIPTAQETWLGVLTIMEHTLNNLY

Molecule `O=C(O)CCC(Cc1ccccc1)C(=O)O` (configuration not stated) [2-Benzyl-pentanedioic acid] came in with a Ki of 5000 nM.
In turn, `O=C(O)C[C@@H](Cc1ccccc1)C(=O)O` [2-benzylbutanedioic acid] showed a Ki of 450 nM.

A word on the Ki: it is the dissociation constant of the complex between target and ligand, obtained from inhibition or displacement. Read a low Ki as higher affinity.
